Square brackets hold non-standard residues; d marks the D form. Peptide text beside a SMILES is read from it.
Tested on: pituitaries removed from 20 day old female rats
Experiment: In Vitro Growth Hormone Release Study
Format: cell-based, rat
Conditions: mean ± SEM, control -180 ± 108
Experimental: Female rats of the CD-1 strain were housed in a constant temperature room at 24° C. with 14 hours light and 10 hours darkness. The rats were fed Purina brand rat chow ab libitum.
All studies were started between 0800 and 1000 hours.
Pituitaries were removed from 20 day old female rats. Two pituitaries were incubated at 36° C. in 1 ml of lactated Ringer's solution in 10 ml polytetrafluoroethylene beakers in a Dubnoff Shaker (90 cycles/min.). The pituitaries were incubated a total of 4 hours (P1, P2, I3, and I4). After two successive one hour preincubation periods (P1, P2), the peptide was added to the incubation medium hourly for 2 hours (I3, I4).
This in vitro study was performed in triplicate and a standard radioimmunoassay of growth hormone present in the incubation medium was performed in duplicate. The hormonal activity was calculated as the difference (Δ) of growth hormone (GH) levels between I3, I4 and P2, i.e., (I3 -P2) and (I4 -P2). P values were calculated by Students' t test using six growth hormone values for each value recorded.
The growth hormone radioimmunoassay reagents were distributed by the National Institute of Arthritis and […] (NIAMDD) program. The growth hormone values were calculated in terms of nanograms (ng) of a rat standard with a growth hormone potency of 0.61 units/mg.

Question: Which “IN VITRO GROWTH HORMONE RELEASE (ΔGH, I3-P2 and I4-P2)” value (peptide 1μg, P Value <0.01) does the source give for `NCCCC[C@@H](N)C(=O)N[C@@H](Cc1ccc(O)cc1)C(=O)N[C@H](Cc1c[nH]c2ccccc12)C(=O)N[C@H](Cc1c[nH]c2ccccc12)C(=O)N[C@@H](Cc1ccccc1)C(N)=O` [H2 N--D--Lys--Tyr--D--Trp--D--Trp--Phe--CONH2] (H-[dK]Y[dW][dW]F-NH2) here?
Answer: The value was 1046 ± 266 ngΔGH/ml incubation medium.

Question: And the “IN VITRO GROWTH HORMONE RELEASE (ΔGH, I3-P2 and I4-P2)” value (peptide 20μg, P Value <0.001)?
Answer: Its value is 1487 ± 197 ngΔGH/ml incubation medium.

Question: What about the “IN VITRO GROWTH HORMONE RELEASE (ΔGH, I3-P2 and I4-P2)” value (peptide 100μg, P Value <0.001) of the same molecule?
Answer: Its value is 1654 ± 329 ngΔGH/ml incubation medium.
